Source: patent publication US11434212B2, “Bicyclic compound as a caspase inhibitor” (CHIA TAI TIANQING PHARMACEUTICAL GROUP CO., LTD., priority 2017, dated 2022)
Entries after “also recorded” stand apart in the source; their conditions may differ.

Assays:
Caspase-8 = target: T1, Caspase-8 (Homo sapiens, UniProt Q14790); assay: In vitro inhibitory activity on Caspase-8 (BioVision Caspase-8 Inhibitor Screening Kit); assay type: biochemical; settings: fluorogenic substrate 50 μM; test concentrations 1000 nM to 0.32 nM
T1 construct: purchased BioVision K158-100
Description: (§1) Caspase Inhibitor Screening Kit for BioVision was used in this experiment to test the inhibitory activity of the test compounds on Caspase.
Caspase-8 Inhibitor Screening Kit (BioVision #K158-100)
(§2) Note: Each caspase enzymatic experiment uses the reagents in corresponding kit thereof. Each enzyme was dissolved in 550 μl of the corresponding 2× reaction buffer, sub-packed and stored at −80° C., respectively.
(§3) 1) The compound was diluted to a 200*test concentration with DMSO via the multiple dilution, then to a 2*test concentration with ddH2O, and added to a 384-well experimental plate at 12.5 μl per well. Test compounds and control compounds were tested at 6 concentration points, test concentrations ranging from 1000 nM to 0.32 nM. The ddH2O containing 1% DMSO was added to the 0% inhibition control well, and a high concentration of the control compound was added to the 100% inhibition control well (final concentration: 5 μM).
(§4) 2) 2× reaction buffer containing 10 mM DTT was prepared. The enzyme caspase stock solution was diluted 5-fold with 2× reaction buffer containing 10 mM DTT and added to a 384-well experimental plate at 6.25 μl per well. After being mixed, the enzyme and compounds were incubated at 37° C. for 30 minutes.
(§5) 3) The fluorogenic substrate of the enzyme caspase was diluted 5-fold with 2× reaction buffer containing 10 mM DTT, and then added to a 384-well experimental plate at 6.25 μl per well. The total reaction volume was 25 μl, the final concentration of the substrate was 50 μM, and the final concentration of DMSO was 0.5%. After the substrate was added, the 384-well experimental plate was incubated at 37° C. for 30 minutes.
(§6) 4) The fluorescence intensity (excitation light wavelength was 400 nm, emission light wavelength was 505 nm) was measured by using a multi-function microplate reader. Fluorescence intensity was used to calculate the inhibitory effect of the compounds on Caspase. GraphPad Prism software was used for fitting compound inhibition curves and calculating IC50 values.

Caspase-3 = target: T2, Caspase-3 (Homo sapiens, UniProt P42574); assay: In vitro inhibitory activity on Caspase-3 (BioVision Caspase-3 Inhibitor Screening Kit); assay type: biochemical; settings: fluorogenic substrate 50 μM; test concentrations 1000 nM to 0.32 nM
T2 construct: purchased BioVision K153-100
T2 sequence (P42574 29-175 limits assumed): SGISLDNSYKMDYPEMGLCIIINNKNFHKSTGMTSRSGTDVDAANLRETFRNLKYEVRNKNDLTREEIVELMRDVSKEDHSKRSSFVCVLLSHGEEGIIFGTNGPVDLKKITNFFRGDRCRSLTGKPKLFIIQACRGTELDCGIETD
T2 sequence (P42574 176-277 limits assumed): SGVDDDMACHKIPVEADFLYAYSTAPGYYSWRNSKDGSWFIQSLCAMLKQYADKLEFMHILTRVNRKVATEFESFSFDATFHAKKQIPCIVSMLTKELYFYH
Description: as §1
Caspase-3 Inhibitor Screening Kit (BioVision #K153-100)
as §2, §3, §4, §5, §6

Caspase-1 = target: T3, Caspase-1 (Homo sapiens, UniProt P29466); assay: In vitro inhibitory activity on Caspase-1 (BioVision Caspase-1 Inhibitor Screening Kit); assay type: biochemical; settings: fluorogenic substrate 50 μM; test concentrations 1000 nM to 0.32 nM
T3 construct: purchased BioVision K151-100
T3 sequence (P29466 120-297 limits assumed): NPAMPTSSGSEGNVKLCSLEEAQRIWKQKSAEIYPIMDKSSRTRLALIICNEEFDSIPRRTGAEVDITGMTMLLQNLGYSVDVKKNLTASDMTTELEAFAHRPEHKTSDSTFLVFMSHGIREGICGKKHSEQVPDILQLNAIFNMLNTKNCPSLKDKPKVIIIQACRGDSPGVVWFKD
T3 sequence (P29466 317-404 limits assumed): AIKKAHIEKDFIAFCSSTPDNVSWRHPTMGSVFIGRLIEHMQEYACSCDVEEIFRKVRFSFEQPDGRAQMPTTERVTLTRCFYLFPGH
Description: as §1
Caspase-1 Inhibitor Screening Kit (BioVision #K151-100)
as §2, §3, §4, §5, §6

[1] = system: CCl4-induced chronic liver fibrosis model; assay: Pharmacodynamic study in CCl4-induced chronic liver fibrosis model; assay type: in vivo, male C57BL/6 mice; set-up: Total score of liver injury / Ballooning change score: scale not given here; settings: for Ballooning change score / Inflammatory cell infiltration / Percentage of liver fibrosis / Total score of liver injury: p.o., bid, 28 days, mean ± sem; for Effect on CCl4-induced liver tissue damage (in words) / Inhibitory effect on liver fibrosis (in words): different doses, oral twice a day for 28 days, vs model group
Description: The therapeutic effects of the test compound IDN-6556 and the compound of Example 1 in the CCl4-induced chronic liver fibrosis model of male C57BL/6 mice were tested.
Male C57BL/6 mice were randomly divided into 7 groups: pseudo model group (group 1), model group (group 2, solvent p.o., q.d), IDN-6556 (group 3, 3 mg/kg, p.o., bid), IDN-6556 (group 4, 10 mg/kg, p.o., bid), Example 1 (group 5, 3 mg/kg, p.o., bid), Example 1 (group 6, 10 mg/kg, p.o., bid)), Example 1 (group 7, 20 mg/kg, p.o., bid). CCl4 was formulated into a CCl4-olive oil mixed solution according to the doses by using olive oil, modeling is performed by orally administration three times a week for 4 weeks; and the pseudo model group was orally administered with the same volume of olive oil alone. Compounds were orally administrated from the day of modeling, twice a day for 28 days, while the pseudo model group and the model group were orally administered with an equal volume of drug solvent. On the next day after the last administration, the animals were fasted for 6 hours, followed by euthanizing, and the livers were collected. Liver tissues were fixed in 10% formalin solution for histopathological analysis.

[2] = Mouse pharmacokinetic study in plasma and liver after oral administration; assay type: in vivo, male C57BL/6J mice; settings: for concentration at 0.5 h / concentration at 2 h / concentration at 6 h: male, C57BL/6J, plasma, read-out: Plasma drug concentration; for liver drug-time curve (area) / plasma drug-time curve (area): 0.5-6 h samples
From the text: This experiment intended to investigate the pharmacokinetics in plasma and liver of male C57BL/6J mice after oral administration of the compounds.
Mice were randomly divided into three groups (3 male mice per group). The compound was formulated into the specified formulation. Oral formulations may be clear or uniform suspensions. Animals were intragastrically administered with a given dose of the preparation, respectively.
Whole blood samples were collected from animals through jugular vein puncture at 3 time points of 30 minutes, 2 hours, and 6 hours after administration, approximately 25 μL per sample; while the liver was collected at each time point.
The plasma samples were added to centrifuge tubes containing anticoagulant, and centrifuged at 4° C., 3000 g for 15 min, and the supernatant plasma was taken and quickly frozen on dry ice and then stored in a refrigerator at −70±10° C. until LC-MS/MS analysis was performed.
The blood outside the liver was sopped up with absorbent paper, and the weight of the liver was weighed, and then placed in liquid nitrogen to freeze. MeOH/15 mM PBS (1:2) at a volume-weight ratio of 1:5 was added thereto, and then the homogenization was performed at 14000 rpm for 2 minutes. It was then stored in a refrigerator at −70±10° C. until LC-MS/MS analysis was performed.
The plasma drug concentration data for the compounds were processed with the non-compartment model using WinNonlin™ Version 6.3.0 (Pharsight, Mountain View, Calif.) pharmacokinetic software. The maximal concentration (Cmax), maximal concentration time (Tmax) and quantitative end time were directly obtained from the plasma concentration-time chart.
The following pharmacokinetic parameters were calculated by using logarithmic linear trapezoidal method: elimination phase half-life (T1/2); the in vivo mean residence time of the drug from point 0 to the last time point (MRT0-last); the in vivo mean residence time of the drug from point 0 to infinite time (MRT0-ifn); the area under time-plasma concentration curve from point 0 to the last time point (AUC0-last); the area under time-plasma concentration curve from point 0 to infinite time (AUC0-inf).
For individual plasma concentrations less than BQL, the one occurred before Tmax was calculated as 0, and the one occurred after Tmax was directly excluded. All parameters and ratios were reported in the forms of three significant digits.
The pharmacokinetic parameters of this experiment were calculated according to the theoretical blood collection times and the theoretical administration concentrations in the protocol. The deviations between the actual administration concentrations and the theoretical concentrations were within the range of ±20%. The deviations between the actual blood collection times and the theoretical blood collection times were in conformity with the relevant SOP (the points within 1 hour after administration were within the range of ±1 min, and the others were within 5% of the theoretical time).

[3] = 0.5 h after oral (intragastric) administration
[4] = 2 h after oral (intragastric) administration
[5] = 6 h after oral (intragastric) administration

T1 sequence (Q14790 217-374 limits assumed): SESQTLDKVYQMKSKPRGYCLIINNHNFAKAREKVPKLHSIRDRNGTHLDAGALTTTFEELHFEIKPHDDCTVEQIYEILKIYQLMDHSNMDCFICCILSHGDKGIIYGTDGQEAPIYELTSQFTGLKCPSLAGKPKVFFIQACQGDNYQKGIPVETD
T1 sequence (Q14790 385-479 limits assumed): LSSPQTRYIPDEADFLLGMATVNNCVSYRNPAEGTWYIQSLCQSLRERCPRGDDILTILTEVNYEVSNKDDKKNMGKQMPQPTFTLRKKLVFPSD

Compound: C[C@H](NC(=O)c1cc(-c2ccccc2C(F)(F)F)on1)C(=O)N[C@@H](CC(=O)O)C(=O)COc1c(F)c(F)cc(F)c1F [Example 11]
- IC50 (Caspase-8): 22.6 nM
- IC50 (Caspase-3): 30 nM
- IC50 (Caspase-1): 9.2 nM

Compound: C[C@H](NC(=O)c1cc(-c2ccc(Cl)cc2)on1)C(=O)N[C@@H](CC(=O)O)C(=O)COc1c(F)c(F)cc(F)c1F [Example 6]
- IC50 (Caspase-8): 19.9 nM
- IC50 (Caspase-3): 24.5 nM
- IC50 (Caspase-1): 6 nM

Compound: C[C@H](NC(=O)c1coc(-c2ccccc2)n1)C(=O)N[C@@H](CC(=O)O)C(=O)COc1c(F)c(F)cc(F)c1F [Example 7]
- IC50 (Caspase-8): 30 nM
- IC50 (Caspase-3): 20.2 nM
- IC50 (Caspase-1): 6.9 nM

Compound: C[C@H](NC(=O)C(=O)Nc1ccccc1C(C)(C)C)C(=O)N[C@@H](CC(=O)O)C(=O)COc1c(F)c(F)cc(F)c1F [IDN-6556, reference compound]
- Ballooning change score ([1]; 3 mg/kg): 0.05 ± 0.04
- Inflammatory cell infiltration ([1]; 3 mg/kg): 1.55 ± 0.06
- Percentage of liver fibrosis ([1]; 3 mg/kg): 1.84 ± 0.07%
- Total score of liver injury ([1]; 3 mg/kg): 1.60 ± 0.07
- Ballooning change score ([1]; 10 mg/kg): 0.08 ± 0.04
- Percentage of liver fibrosis ([1]; 10 mg/kg): 1.86 ± 0.12%
- Total score of liver injury ([1]; 10 mg/kg): 1.43 ± 0.12
- Effect on CCl4-induced liver tissue damage (in words) [1]: significantly inhibit
- Inhibitory effect on liver fibrosis (in words) [1]: no clear inhibitory effect
- Effect on CCl4-induced liver tissue damage (in words) ([1]; listed as IND-6556): significantly improve
- Liver drug concentration [2, 3]: 8600 nmol/kg
- Liver drug concentration [2, 4]: 930 nmol/kg
- Liver drug concentration [2, 5]: 230 nmol/kg
- concentration at 0.5 h [2, 3]: 435 nM
- concentration at 2 h [2, 4]: 10.9 nM
- concentration at 6 h [2, 5]: 5.79 nM
- liver drug-time curve (area) ([2]; oral administration): 9.347 µM·h
- plasma drug-time curve (area) ([2]; oral administration): 0.314 µM·h

Compound: C[C@H](NC(=O)c1cc(-c2ccccc2F)n[nH]1)C(=O)N[C@@H](CC(=O)O)C(=O)COc1c(F)c(F)cc(F)c1F [Example 5]
- IC50 (Caspase-8): 16.8 nM
- IC50 (Caspase-3): 13.7 nM
- IC50 (Caspase-1): 3.9 nM

Compound: C[C@H](NC(=O)c1cc(-c2cccc(Cl)c2)on1)C(=O)N[C@@H](CC(=O)O)C(=O)COc1c(F)c(F)cc(F)c1F [Example 10]
- IC50 (Caspase-8): 16.3 nM
- IC50 (Caspase-3): 22 nM
- IC50 (Caspase-1): 6.6 nM

Compound: C[C@H](NC(=O)c1cc(-c2ccccc2Cl)on1)C(=O)N[C@H](CC(=O)O)C(=O)COc1c(F)c(F)cc(F)c1F [Example 18]
- IC50 (Caspase-8): 62.1 nM
- IC50 (Caspase-3): 26.1 nM
- IC50 (Caspase-1): 7.5 nM

Compound: C[C@H](NC(=O)c1c[nH]c(-c2ccccc2)n1)C(=O)N[C@@H](CC(=O)O)C(=O)COc1c(F)c(F)cc(F)c1F [Example 3]
- IC50 (Caspase-8): 25.9 nM
- IC50 (Caspase-3): 24 nM
- IC50 (Caspase-1): 4.8 nM

Compound: C[C@H](NC(=O)c1cc(-c2ccccc2Cl)on1)C(=O)N[C@@H](CC(=O)O)C(=O)COc1c(F)c(F)cc(F)c1F [Example 1, (S)-3-((S)-2-(5-(2-chlorophenyl)isoxazol-3-carboxamido)propionamido)-4-oxo-5-(2,3,5,6-tetrafluorophenoxy)pentanoic Acid]
- Ballooning change score ([1]; 3 mg/kg): 0.00 ± 0.00
- Inflammatory cell infiltration ([1]; 3 mg/kg): 1.13 ± 0.06
- Percentage of liver fibrosis ([1]; 3 mg/kg): 1.61 ± 0.05^$$ %
- Total score of liver injury ([1]; 3 mg/kg): 1.13 ± 0.06
- Ballooning change score ([1]; 10 mg/kg): 0.00 ± 0.00
- Inflammatory cell infiltration ([1]; 10 mg/kg): 1.15 ± 0.07
- Percentage of liver fibrosis ([1]; 10 mg/kg): 1.62 ± 0.07^$ %
- Total score of liver injury ([1]; 10 mg/kg): 1.20 ± 0.07
- Ballooning change score ([1]; 20 mg/kg): 0.00 ± 0.00
- Inflammatory cell infiltration ([1]; 20 mg/kg): 1.10 ± 0.04
- Percentage of liver fibrosis ([1]; 20 mg/kg): 1.69 ± 0.10%
- Total score of liver injury ([1]; 20 mg/kg): 1.12 ± 0.04
- Effect on CCl4-induced liver tissue damage (in words) [1]: significantly improve; also recorded: significantly inhibit
- Inhibitory effect on liver fibrosis (in words) [1]: significantly inhibited; also recorded: significant inhibitory effect
- Liver drug concentration [2, 3]: 46440 nmol/kg
- Liver drug concentration [2, 4]: 3126 nmol/kg
- Liver drug concentration [2, 5]: 3252 nmol/kg
- concentration at 0.5 h [2, 3]: 2520 nM
- concentration at 2 h [2, 4]: 112 nM
- concentration at 6 h [2, 5]: 12.8 nM
- Liver exposure compared to IDN-6556 ([2]; oral administration): about 5 times
- liver drug-time curve (area) ([2]; oral administration): 48.442 µM·h
- plasma drug-time curve (area) ([2]; oral administration): 1.795 µM·h
